The results in this text go back to patent publication US7928098B2, “Therapeutic and/or preventive agents for a sleep disorder” (Kyowa Hakko Kirin Co., Ltd., priority 2005, dated 2011).

`O=C(CN1CCC(N2CCCCC2)CC1)Nc1nc(-c2ccco2)c(C(=O)C2CCOCC2)s1` [Compound 457, N-[4-(2-Furyl)-5-(tetrahydropyran-4-ylcarbonyl)thiazol-2-yl]-2-(4-piperidinopiperidino)acetamide] came in with a melting point of 177 to 179 °C.
`O=C(CN1CCSC1)Nc1nc(-c2ccco2)c(C(=O)c2ccccn2)s1` [Compound 189, N-[4-(2-Furyl)-5-(pyridin-2-ylcarbonyl)thiazol-2-yl]-2-(1,3-thiazolidin-3-yl)acetamide] displayed a melting point of 153 to 155 °C.
With `CCCC(=O)c1sc(NC(=O)c2ccncc2)nc1-c1ccco1` [Compound 289, N-[5-Butyryl-4-(2-furyl)thiazol-2-yl]pyridine-4-carboxamide], the melting point was 191 to 194 °C.
`O=C(Nc1nc(-c2ccco2)c(C(=O)C2CCOCC2)s1)c1cnccn1` [Compound 414, N-[4-(2-Furyl)-5-(tetrahydropyran-4-ylcarbonyl)thiazol-2-yl]pyrazine-2-carboxamide]: the melting point was 200 to 205 °C.
Compound `COc1cccc(C(=O)Nc2nc(-c3ccco3)c(C(=O)C3CCC(=O)CC3)s2)c1` [Compound 356, N-[4-(2-Furyl)-5-(4-oxocyclohexylcarbonyl)thiazol-2-yl]-3-methoxybenzamide] came in with a melting point of 176 to 183 °C.
In turn, `Cc1ccc(C(=O)c2sc(NC(=O)c3ccoc3)nc2-c2ccco2)cn1` [Compound 223, N-[4-(2-Furyl)-5-(2-methylpyridin-5-ylcarbonyl)thiazol-2-yl]furan-3-carboxamide] showed a melting point of 229 to 231 °C.
As for `O=C(Nc1nc(-c2ccco2)c(C(=O)c2ccccn2)s1)c1ccoc1` [Compound 146, N-[4-(2-Furyl)-5-(pyridin-2-ylcarbonyl)thiazol-2-yl]furan-3-carboxamide], the melting point was 187 to 189 °C.
Compound `O=C(c1cccnc1)c1sc(NC(=O)C2CC2)nc1-c1ccco1` [Compound 212, N-[4-(2-Furyl)-5-(pyridin-3-ylcarbonyl)thiazol-2-yl]cyclopropanecarboxamide] registered a melting point of 231 to 233 °C.
`O=C(Nc1nc(-c2ccco2)c(C(=O)C2CCOCC2)s1)c1ccc(F)c(F)c1` [Compound 398, 3,4-Difluoro-N-[4-(2-furyl)-5-(tetrahydropyran-4-ylcarbonyl)thiazol-2-yl]benzamide] returned a melting point of 208 to 210 °C.
The result for `O=C(Nc1nc(-c2ccco2)c(C(=O)c2ccccn2)s1)c1cc(Cl)nc(Cl)c1` [Compound 124, 2,6-Dichloro-N-[4-(2-furyl)-5-(pyridin-2-ylcarbonyl)thiazol-2-yl]pyridine-4-carboxamide] reads 254 to 258 °C.
On to `O=C(Nc1nc(-c2ccco2)c(C(=O)C2CCOCC2)s1)c1ccccc1` [Compound 362, N-[4-(2-Furyl)-5-(tetrahydropyran-4-ylcarbonyl)thiazol-2-yl]benzamide], for which the melting point was in the range of 221 to 222 °C.
The compound `O=C(CN1CCC(N2CCCC2)CC1)Nc1nc(-c2ccco2)c(C(=O)C2CCOCC2)s1` [Compound 456, N-[4-(2-Furyl)-5-(tetrahydropyran-4-ylcarbonyl)thiazol-2-yl]-2-[4-(1-pyrrolidinyl)piperidino]acetamide] registered a melting point of 183 to 184 °C.
With `COC1CCN(CC(=O)Nc2nc(-c3ccco3)c(C(=O)c3ccccn3)s2)CC1.Cl`, the melting point is 220 to 232 °C (dec.).
The result for `O=C(CCc1ccccc1)Nc1nc(-c2ccco2)c(C(=O)C2CCOCC2)s1` [Compound 432, N-[4-(2-Furyl)-5-(tetrahydropyran-4-ylcarbonyl)thiazol-2-yl]-3-phenylpropanamide] reads 161 to 164 °C; that for `O=C(Nc1nc(-c2ccco2)c(C(=O)C2CCOCC2)s1)c1cccc(OC(F)(F)F)c1` [Compound 381, N-[4-(2-Furyl)-5-(tetrahydropyran-4-ylcarbonyl)thiazol-2-yl]-3-(trifluoromethoxy)benzamide], 197 to 198 °C.
Turning to `CC1(O)CCN(CC(=O)Nc2nc(-c3ccco3)c(C(=O)C3CCOCC3)s2)CC1` [Compound 451, N-[4-(2-Furyl)-5-(tetrahydropyran-4-ylcarbonyl)thiazol-2-yl]-2-(4-hydroxy-4-methylpiperidino)acetamide], the melting point lay within 151 to 153 °C.
As to `CC(=O)c1sc(NC(=O)c2ccncc2)nc1-c1ccco1` [Compound 284, N-[5-Acetyl-4-(2-furyl)thiazol-2-yl]pyridine-4-carboxamide], the melting point is 252 to 259 °C (dec.).
On to `CC(C)N1CCN(CC(=O)Nc2nc(-c3ccco3)c(C(=O)c3ccccn3)s2)CC1` [Compound 182, N-[4-(2-Furyl)-5-(pyridin-2-ylcarbonyl)thiazol-2-yl]-2-(4-isopropylpiperazine-1-yl)acetamide], for which the melting point lay in the range of 154 to 155 °C.
In turn, `O=C(Nc1nc(-c2ccco2)c(C(=O)c2ccccn2)s1)OC(CF)CF` [Compound 163, 2-Fluoro-1-(fluoromethyl)ethyl N-[4-(2-furyl)-5-(pyridin-2-ylcarbonyl)thiazol-2-yl]carbamate] had a melting point of 158 to 159 °C.
As for `COc1ccc(C(=O)Nc2nc(-c3ccco3)c(C(=O)c3ccccn3)s2)cc1` [Compound 110, N-[4-(2-Furyl)-5-(pyridin-2-ylcarbonyl)thiazol-2-yl]-4-methoxybenzamide], the figure is 187 to 188 °C; as for `COc1ccccc1C(=O)Nc1nc(-c2ccco2)c(C(=O)c2ccccn2)s1` [Compound 108, N-[4-(2-Furyl)-5-(pyridin-2-ylcarbonyl)thiazol-2-yl]-2-methoxybenzamide], 205 to 208 °C.
`Cc1cc(C(=O)Nc2nc(-c3ccco3)c(C(=O)C3CCOCC3)s2)ccn1` [Compound 405, N-[4-(2-Furyl)-5-(tetrahydropyran-4-ylcarbonyl)thiazol-2-yl]-2-methylpyridine-4-carboxamide] yielded a melting point of 169 to 173 °C.
`O=C(Nc1nc(-c2ccco2)c(C(=O)C2CCC2)s1)c1ccco1` [Compound 331, N-[5-(Cyclobutylcarbonyl)-4-(2-furyl)thiazol-2-yl]furan-2-carboxamide]: the melting point fell in the range of 188 to 192 °C.
The result for `COC(C)(C)CN1CCN(CC(=O)Nc2nc(-c3ccco3)c(C(=O)C3CCOCC3)s2)CC1` [Compound 471, N-[4-(2-Furyl)-5-(tetrahydropyran-4-ylcarbonyl)thiazol-2-yl]-2-[4-(2-methoxy-2-methylpropyl)piperazin-1-yl]acetamide] reads 105 to 107 °C; that for `Cc1cc(C(=O)Nc2nc(-c3ccco3)c(C(=O)C3CCC(=O)CC3)s2)ccn1` [Compound 354, N-[4-(2-Furyl)-5-(4-oxocyclohexylcarbonyl)thiazol-2-yl]-2-methylpyridine-4-carboxamide], 108 to 115 °C; that for `Cc1ccoc1C(=O)Nc1nc(-c2ccco2)c(C(=O)c2ccccn2)s1` [Compound 145, N-[4-(2-Furyl)-5-(pyridin-2-ylcarbonyl)thiazol-2-yl]-3-methylfuran-2-carboxamide], 174 to 176 °C.
`CCCC(=O)c1sc(NC(=O)C2CC2)nc1-c1ccco1` [Compound 292, N-[5-Butyryl-4-(2-furyl)thiazol-2-yl]cyclopropanecarboxamide] returned a melting point of 170 to 172 °C.
